# Reference: US20090275099A1 (priority 2004, published 2009)
# pIC50: −log10 of the molar value. Where two headings read alike, the source gives them in different places.
# Key:
# [1] = target: mitochondrial F1F0-ATPase (Homo sapiens, UniProt P48047); conditions: read-out: BMS IC50 (hydr); cited from earlier work
# [2] = target: T1, F1F0-ATPase, OSCP subunit (UniProt P48047); experiment: F1F0-ATPase activity in SMPs reconstituted in the presence or absence of the OSCP; assay type: biochemical, bovine; set-up: rows headed: KJ IC50 reconst; not tied in print to the reconstitution assay; conditions: read-out: KJ IC50 reconst
# T1 sequence (P48047 1-213): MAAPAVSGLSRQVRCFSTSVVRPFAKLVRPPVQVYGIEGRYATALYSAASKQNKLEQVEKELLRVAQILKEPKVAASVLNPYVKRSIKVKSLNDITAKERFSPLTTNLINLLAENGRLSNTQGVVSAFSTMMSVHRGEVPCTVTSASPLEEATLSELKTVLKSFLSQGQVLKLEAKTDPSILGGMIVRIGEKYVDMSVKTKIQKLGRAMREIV
# Method: (§1) An additional OSCP binding assay was conducted. […] Benzodiazepine derivative compounds that bind the OSCP include, but are not limited to: […]
# [3] = target: T2, mitochondrial F1F0-ATPase (Bos taurus, UniProt P13621+P32876); experiment: biochemical; set-up: species or system bovine; conditions: for pIC50: read-out: KJ IC50 (hydr); for EC50: bovine SMPs
# [4] = target: T2, mitochondrial F1F0-ATPase; experiment: biochemical; set-up: species or system bovine; conditions: for pIC50: read-out: KJ IC50 (syn); for EC50: bovine SMPs
# [5] = tested on: F1F0-ATPase, OSCP subunit; experiment: F1F0-ATPase activity in SMPs reconstituted in the presence or absence of the OSCP; assay type: biochemical, bovine; conditions: without OSCP, at IC50
# Method: as §1
# Ramos B cells = experiment: cell death of Ramos B cells, propidium iodide exclusion by flow cytometry, 24 h; assay type: cell-based, human; conditions: for EC50: 24 h
# Jurkat cells [6] = experiment: early O2− (ROS) response, 1 h; assay type: cell-based; conditions: for % ROS+: Jurkat cells, 75 μM PK11195, with or without antioxidant pre-incubation; for EC50: 1 h, read-out: ROS EC50 (μM), Jurkat cells
# Method: (§2) To detect O2^−, cells are incubated with DHE (10 μM) for 30 min at 37° C. and are analyzed by flow cytometry to measure ethidium fluorescence. Flow analysis of mitochondrial transmembrane potential (ψm) is conducted by labeling cells with DiOC6(3) (20 nM) for 15 min at 37 degrees C. A positive control for disruption of ψm is established using carbonyl cyanide m-chlorophenylhydrazone (CCCP, 50 μM). Caspase activation assays are performed with FAM-VAD-fluoromethylketone. Processing of the substrate is evaluated by flow cytometry.
# (§3) Since an early mitochondrial superoxide (O2^−) mediates apoptosis induced by Bz-423, the O2^− response of cells 1 h following incubation with drug was examined, as well as cell death at 24 h, as previously described (see, e.g., Blatt, N. B., et al., 2002 J Clin Invest 110, 1123-1132; incorporated herein by reference in its entirety).
# Jurkat cells [7] = experiment: cell death at 24 h; assay type: cell-based; conditions: for % Cell death: Jurkat cells, 75 μM PK11195, with or without antioxidant pre-incubation; for EC50: 24 h, read-out: Cell death EC50 (μM), Jurkat cells
# Method: as §3
# [8] = tested on: isolated rat liver mitochondria; experiment: ROS production in isolated mitochondria (DCF oxidation); conditions: aerobic conditions supporting state 3 respiration, slope versus control
# Method: Male Long Evans rats are starved overnight and sacrificed by decapitation. Liver samples are homogenized in ice cold buffer A (250 mM sucrose, 10 mM Tris, 0.1 mM EGTA, pH 7.4), and nuclei and cellular debris are pelleted (10 min, 830 g, 4° C.). Mitochondria are collected by centrifugation (10 min, 15,000 g, 4° C.), and the supernatant is collected as the S15 fraction. The mitochondrial pellet is washed three times with buffer B (250 mM sucrose, 10 mM Tris, pH 7.4), and re-suspended in buffer B at 20-30 mg/mL. Mitochondria are diluted (0.5 mg/mL) in buffer C (200 mM sucrose, 10 mM Tris, pH 7.4, 1 mM KH2PO4, 10 μM EGTA, 2.5 μM rotenone, 5 mM succinate) containing 2′,7′-dichlorodihydrofluorescin diacetate (DCFH-DA, 1 μM). For state 3 measurements, ADP (2 mM) is included in the buffer, and prior to the addition of Bz-423, mitochondria are allowed to charge for 2 min. To induce state 4, oligomycin (10 μM) is added to buffer C. […] To detect effects on O2^− and delta ψm, mitochondria are incubated for 15 min at 37° C. in buffer C with vehicle, Bz-423, or CCCP containing DHE (5 μM) or DIOC6(3) (20 nM), and aliquots are removed for analysis by fluorescence microscopy.
# O2^− production by Bz-423 may result from binding to a protein within mitochondria or a target in another compartment that signals mitochondria to generate ROS. […]
# Ramos cells = experiment: early O2− (ROS) response, 1 h; assay type: cell-based, human; conditions: for EC50: 1 h, read-out: ROS EC50 (μM), Ramos cells
# Method: as §2, §3
# [9] = ATPase activity EC50 (μM), Hydrolysis
# [10] = ATPase activity EC50 (μM), Synthesis
Compound,pIC50 [1],pIC50 [2],pIC50 [3],pIC50 [4],% activity without OSCP at IC50 [5],further results
"O=S(=O)(c1ccc(Cl)c(Cl)c1)N1Cc2ccccc2N(Cc2c[nH]cn2)C(CCc2ccccc2)C1 (centres unmarked) [4-(3,4-dichlorophenylsulfonyl)-1-(1H-imidazol-4-ylmethyl)-2-phenethyl-2,3,4,5-tetrahydro-1H-benzo[e][1,4]diazepine]",7.66,7.30,7.22,5.30,76%,
"COc1ccc(S(=O)(=O)N2Cc3ccccc3N(Cc3c[nH]cn3)C(CCc3ccccc3)C2)cc1 (centres unmarked) [4-(4-methoxyphenylsulfonyl)-1-(1H-imidazol-4-ylmethyl)-2-phenethyl-2,3,4,5-tetrahydrol-1H-benzo[e][1,4]diazepine]",7.11,7.30,7.12,5.12,81%,
"CN1C(=O)CN=C(c2ccccc2)c2cc(Cl)ccc21 [Dz, diazepam, reference compound]",,,,,,"EC50 (Ramos B cells; Homo sapiens, Ramos, read-out: EC50 (μM), cell death): > 80 µM; EC50 [3, 9]: > 300 µM; EC50 [4, 10]: 210 µM"
"O=C(O)c1ccc(-c2c3nc(c(-c4ccc(C(=O)O)cc4)c4ccc([nH]4)c(-c4ccc(C(=O)O)cc4)c4nc(c(-c5ccc(C(=O)O)cc5)c5ccc2[nH]5)C=C4)C=C3)cc1.[Mn+3] [MnTBAP, Manganese(III) meso-tetrakis(4-benzoic acid)porphyrin]",,,,,,% ROS+ (Jurkat cells [6]): 39.7 ± 2.8%; % Cell death (Jurkat cells [7]): 68.9 ± 1.0%
vitamin E,,,,,,% ROS+ (Jurkat cells [6]): 33.9 ± 2.6%; % Cell death (Jurkat cells [7]): 55.9 ± 0.5%
"Cc1[nH]cnc1CN1c2ccccc2CN(S(=O)(=O)c2ccc(C(C)(C)C)cc2)CC1CCc1ccccc1 (centres unmarked) [4-(4-tert-butylphenylsulfonyl)-1-(5-methyl-1H-imidazol-4-ylmethyl)-2-phenethyl-2,3,4,5-tetrahydro-1H-benzo[e][1,4]diazepine]",7.11,8.30,7.26,4.82,80%,
"S=C(Nc1ccc(Cl)cc1)OC(Cn1ccnc1)c1ccc(Cl)cc1Cl (centres unmarked) [(4-chlorophenyl)-thiocarbamic acid O-[1-(2,4-dichlorophenyl)-2-imidazol-1-yl-ethyl] ester]",6.37,6.52,6.12,4.90,70%,
"O=S(=O)(c1ccc(F)cc1)N1Cc2ccccc2N(Cc2c[nH]cn2)C(CCc2ccccc2)C1 (centres unmarked) [4-(4-fluorophenylsulfonyl)1-(1H-imidazol-4-ylmethyl)-2-phenethyl-2,3,4,5-tetrahydro-1H-benzo[e][1,4]diazepine]",6.66,7.00,6.82,5.12,79%,
"N#CN/C(=N/c1ccc(Cl)cc1Cl)NC(Cn1ccnc1)c1ccc(Cl)cc1Cl (centres unmarked) [(1-(2,4-dichlorophenyl)-2-(1H-imidazol-1-yl)ethyl)-3-(2,4-dichlorophenyl)-2-cyanoguanidine]",6.22,5.40,< 5.52,5.22,,
"N#Cc1cccc(C(=O)/N=C(\Nc2ccc(Cl)cc2)NC(Cn2ccnc2)c2ccc(Cl)cc2Cl)c1 (racemic) [(+/−)-(1-(2,4-dichlorophenyl)-2-(1H-imidazol-1-yl)ethyl)-3-(4-chlorophenyl)-2-(3-cyanobenzoyl)guanidine]",7.48,6.70,7.00,5.82,,
antimycin A,,,,,,increase of the rate of ROS production [8]: nearly two-fold
"CC(C)(C)c1ccc(S(=O)(=O)N2Cc3ccccc3N(Cc3c[nH]cn3)C(CCc3ccccc3)C2)cc1 (centres unmarked) [4-(4-tertbutylphenylsulfonyl)-1-(1H-imidazol-4-ylmethyl)-2-phenethyl-2,3,4,5-tetrahydro-1H-benzo[e][1,4]diazepine]",8.10,7.70,7.60,5.30,77%,
"O=S(=O)(N1Cc2ccccc2N(Cc2c[nH]cn2)C(CCc2ccccc2)C1)C(F)(F)F (centres unmarked) [4-trifluoromethylsulfonyl-1-(1H-imidazol-4-ylmethyl)-2-phenethyl-2,3,4,5-tetrahydro-1H-benzo[e][1,4]diazepine]",7.11,7.30,7.30,5.43,78%,
"O=S(=O)(c1ccc(C(F)(F)F)cc1)N1Cc2ccccc2N(Cc2c[nH]cn2)C(CCc2ccccc2)C1 (centres unmarked) [4-(4-trifluoromethylphenylsulfonyl)-1-(1H-imidazol-4-ylmethyl)-2-phenethyl-2,3,4,5-tetrahydro-1H-benzo[e][1,4]diazepine]",7.00,7.60,7.30,5.22,80%,
"CN1C(=O)CN=C(c2ccc(Cl)cc2)c2cc(Cl)ccc21 [Compound 4-Cl-Dz, 4-chlorodiazepam]",,,,,,"EC50 (Jurkat cells [6]): 230 µM; EC50 (Ramos cells): 180 µM; EC50 (Ramos B cells; read-out: Cell death EC50 (μM), Ramos cells): 130 µM; EC50 (Jurkat cells [7]): > 300 µM; inhibition of mitochondrial ATPase activity ([3]; 80 μM): do not significantly inhibit mitochondrial ATPase activity; EC50 ([3]; read-out: ATPase activity EC50 (μM), Hydrolysis): > 300 µM; EC50 ([4]; read-out: ATPase activity EC50 (μM), Synthesis): 210 µM"
CN1C(=O)C(Cc2ccc3ccccc3c2)CN(c2ccc(O)cc2)c2cc(Cl)ccc21 (centres unmarked) [GD-423],,,,,,"response of Ramos cells at 1 hour (Ramos cells; 1 hour, 2% FBS, DHE, FIG. 9): causes cell death; cellular death of Ramos cells (Ramos B cells; 24 hours, 2% FBS, FIG. 8): causes cell death"
"O=S(=O)(c1ccc(O)cc1)N1Cc2ccccc2N(Cc2cnc[nH]2)C(CCc2ccccc2)C1 (centres unmarked) [4-(4-hydroxphenylsulfonyl)-1-(1H-imidazol-4-ylmethyl)-2-phenethyl-2,3,4,5-tetrahydro-1H-benzo[e][1,4]diazepine]",6.18,6.30,6.12,4.70,77%,
"N#CN/C(=N\C(Cn1ccnc1)c1cc(C(F)(F)F)ccc1C(F)(F)F)Nc1ccc(Cl)cc1Cl (centres unmarked) [(1-(2,5-bis(trifluoromethyl)phenyl)-2-(1H-imidazol-1-yl)ethyl)-3-(2,4-dichlorophenyl)-2-cyanoguanidine]",6.15,6.60,7.00,5.43,,
"O=C1CN=C(c2ccccc2Cl)c2cc([N+](=O)[O-])ccc2N1 [Cz, clonazepam]",,,,,,"EC50 (Jurkat cells [6]; Homo sapiens, Jurkat): > 300 µM; EC50 (Ramos cells; Homo sapiens, Ramos): > 300 µM; EC50 (Ramos B cells; Homo sapiens, Ramos, read-out: Cell death EC50 (μM), Ramos cells): > 300 µM; EC50 (Jurkat cells [7]; Homo sapiens, Jurkat): > 300 µM; EC50 [3, 9]: 240 µM; EC50 [4, 10]: 120 µM"
